Key:
Experiment in all cases: relative viability (nuclei count vs DMSO), 5 days (fraction); higher = more cells survive
BEN = test system: BEN
Method in brief: (§1)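 Cells from lung cancer lines were seeded into 1536-well plates and, one day later, dosed by pin tool. Treatments were either a single drug or a fixed dose of an anchor drug with five library-drug doses (not always all listed) in √10 steps. After 5 days, nuclei were stained in a one-step fixation (final 0.05% Triton X-100, 1% formaldehyde, 1 ug/ml Hoechst) and counted on 4× images, and relative viability is the treated-to-vehicle nuclei ratio, as the median of duplicate plates.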

NCI-H2087 = test system: NCI-H2087
Method in brief: as §1

ABC-1 = test system: ABC-1
Method in brief: as §1

NCI-H1915 = test system: NCI-H1915
Method in brief: as §1

NCI-H650 = test system: NCI-H650
Method in brief: as §1

NCI-H441 = test system: NCI-H441
Method in brief: as §1

NCI-H727 = test system: NCI-H727
Method in brief: as §1

201T = test system: 201T
Method in brief: as §1

NCI-H596 = test system: NCI-H596
Method in brief: as §1

LCLC-97TM1 = test system: LCLC-97TM1
Method in brief: as §1

NCI-H460 = test system: NCI-H460
Method in brief: as §1

A-427 = test system: A-427
Method in brief: as §1

LC-2-ad = test system: LC-2-ad
Method in brief: as §1

NCI-H1944 = test system: NCI-H1944
Method in brief: as §1

PC-3 [JPC-3] = test system: PC-3 [JPC-3]
Method in brief: as §1

CAL-12T = test system: CAL-12T
Method in brief: as §1

NCI-H1651 = test system: NCI-H1651
Method in brief: as §1

H3255 = test system: H3255
Method in brief: as §1

**Q.** For O=c1cc(N2CCOCC2)oc2c(-c3cccc4c3sc3ccccc34)cccc12 + NC(=O)Nc1cc(-c2cccc(F)c2)sc1C(=O)N[C@H]1CCCNC1 [AZD7762] (partner 0.2 µM), which relative viability (BEN; first compound 0.01 µM) is on record?
**A.** Its relative viability is 0.576.

**Q.** What about the relative viability (BEN; first compound 0.03162 µM) of the same molecule?
**A.** The relative viability was 0.86.

**Q.** And the relative viability (BEN; first compound 0.1 µM)?
**A.** Its relative viability is 0.289.

**Q.** And the relative viability (BEN; first compound 0.3162 µM)?
**A.** The relative viability was 0.735.

**Q.** What about the relative viability (BEN; first compound 1 µM) of the same molecule?
**A.** The relative viability was 0.626.

**Q.** And the relative viability (NCI-H2087; first compound 0.01 µM)?
**A.** The relative viability was 1.37.

**Q.** What about the relative viability (NCI-H2087; first compound 0.03162 µM) of the same molecule?
**A.** The relative viability was 1.23.

**Q.** And the relative viability (NCI-H2087; first compound 0.1 µM)?
**A.** The relative viability was 1.44.

**Q.** And the relative viability (NCI-H2087; first compound 0.3162 µM)?
**A.** The relative viability was 1.31.

**Q.** What about the relative viability (NCI-H2087; first compound 1 µM) of the same molecule?
**A.** The relative viability was 1.36.

**Q.** What about the relative viability (ABC-1; first compound 0.01 µM) of the same molecule?
**A.** Its relative viability is 0.819.

**Q.** What about the relative viability (ABC-1; first compound 0.03162 µM) of the same molecule?
**A.** Its relative viability is 0.774.

**Q.** What about the relative viability (ABC-1; first compound 0.1 µM) of the same molecule?
**A.** The relative viability was 0.695.

**Q.** What about the relative viability (ABC-1; first compound 0.3162 µM) of the same molecule?
**A.** Its relative viability is 0.694.

**Q.** What about the relative viability (ABC-1; first compound 1 µM) of the same molecule?
**A.** The relative viability was 0.848.

**Q.** What about the relative viability (NCI-H1915; first compound 0.01 µM) of the same molecule?
**A.** Its relative viability is 0.763.

**Q.** And the relative viability (NCI-H1915; first compound 0.03162 µM)?
**A.** Its relative viability is 0.725.

**Q.** And the relative viability (NCI-H1915; first compound 0.1 µM)?
**A.** Its relative viability is 0.731.

**Q.** And the relative viability (NCI-H1915; first compound 0.3162 µM)?
**A.** The relative viability was 0.658.

**Q.** And the relative viability (NCI-H1915; first compound 1 µM)?
**A.** The relative viability was 0.675.

**Q.** And the relative viability (NCI-H650; first compound 0.01 µM)?
**A.** The relative viability was 1.11.

**Q.** And the relative viability (NCI-H650; first compound 0.03162 µM)?
**A.** Its relative viability is 1.15.

**Q.** What about the relative viability (NCI-H650; first compound 0.3162 µM) of the same molecule?
**A.** The relative viability was 1.15.

**Q.** And the relative viability (NCI-H650; first compound 1 µM)?
**A.** The relative viability was 1.24.

**Q.** What about the relative viability (NCI-H441; first compound 0.01 µM) of the same molecule?
**A.** Its relative viability is 1.06.

**Q.** And the relative viability (NCI-H441; first compound 0.03162 µM)?
**A.** Its relative viability is 1.03.

**Q.** What about the relative viability (NCI-H441; first compound 0.1 µM) of the same molecule?
**A.** The relative viability was 1.09.

**Q.** What about the relative viability (NCI-H441; first compound 0.3162 µM) of the same molecule?
**A.** The relative viability was 1.2.

**Q.** And the relative viability (NCI-H441; first compound 1 µM)?
**A.** The relative viability was 1.01.

**Q.** What about the relative viability (NCI-H727; first compound 0.01 µM) of the same molecule?
**A.** Its relative viability is 0.583.

**Q.** What about the relative viability (NCI-H727; first compound 0.03162 µM) of the same molecule?
**A.** Its relative viability is 0.486.

**Q.** And the relative viability (NCI-H727; first compound 0.1 µM)?
**A.** The relative viability was 0.423.

**Q.** And the relative viability (NCI-H727; first compound 0.3162 µM)?
**A.** Its relative viability is 0.596.

**Q.** What about the relative viability (NCI-H727; first compound 1 µM) of the same molecule?
**A.** The relative viability was 0.575.

**Q.** What about the relative viability (201T; first compound 0.01 µM) of the same molecule?
**A.** Its relative viability is 0.624.

**Q.** And the relative viability (201T; first compound 0.03162 µM)?
**A.** Its relative viability is 0.619.

**Q.** And the relative viability (201T; first compound 0.1 µM)?
**A.** The relative viability was 0.615.

**Q.** And the relative viability (201T; first compound 0.3162 µM)?
**A.** Its relative viability is 0.585.

**Q.** And the relative viability (201T; first compound 1 µM)?
**A.** Its relative viability is 0.583.

**Q.** And the relative viability (NCI-H596; first compound 0.01 µM)?
**A.** Its relative viability is 1.19.

**Q.** And the relative viability (NCI-H596; first compound 0.03162 µM)?
**A.** The relative viability was 1.2.

**Q.** What about the relative viability (NCI-H596; first compound 0.1 µM) of the same molecule?
**A.** Its relative viability is 0.75.

**Q.** And the relative viability (NCI-H596; first compound 0.3162 µM)?
**A.** The relative viability was 1.18.

**Q.** And the relative viability (NCI-H596; first compound 1 µM)?
**A.** The relative viability was 1.08.

**Q.** What about the relative viability (LCLC-97TM1; first compound 0.01 µM) of the same molecule?
**A.** The relative viability was 0.215.

**Q.** And the relative viability (LCLC-97TM1; first compound 0.03162 µM)?
**A.** Its relative viability is 0.353.

**Q.** And the relative viability (LCLC-97TM1; first compound 0.1 µM)?
**A.** The relative viability was 0.0724.

**Q.** What about the relative viability (LCLC-97TM1; first compound 0.3162 µM) of the same molecule?
**A.** Its relative viability is 0.349.

**Q.** What about the relative viability (LCLC-97TM1; first compound 1 µM) of the same molecule?
**A.** Its relative viability is 0.22.

**Q.** And the relative viability (NCI-H460; first compound 0.01 µM)?
**A.** Its relative viability is 0.518.

**Q.** And the relative viability (NCI-H460; first compound 0.03162 µM)?
**A.** Its relative viability is 0.622.

**Q.** And the relative viability (NCI-H460; first compound 0.1 µM)?
**A.** Its relative viability is 0.451.

**Q.** And the relative viability (NCI-H460; first compound 0.3162 µM)?
**A.** Its relative viability is 0.589.

**Q.** What about the relative viability (NCI-H460; first compound 1 µM) of the same molecule?
**A.** The relative viability was 0.636.

**Q.** And the relative viability (A-427; first compound 0.01 µM)?
**A.** The relative viability was 0.731.

**Q.** And the relative viability (A-427; first compound 0.03162 µM)?
**A.** The relative viability was 0.767.

**Q.** What about the relative viability (A-427; first compound 0.1 µM) of the same molecule?
**A.** Its relative viability is 0.529.

**Q.** What about the relative viability (A-427; first compound 0.3162 µM) of the same molecule?
**A.** The relative viability was 0.795.

**Q.** What about the relative viability (A-427; first compound 1 µM) of the same molecule?
**A.** Its relative viability is 0.735.

**Q.** What about the relative viability (LC-2-ad; first compound 0.01 µM) of the same molecule?
**A.** The relative viability was 0.815.

**Q.** And the relative viability (LC-2-ad; first compound 0.03162 µM)?
**A.** Its relative viability is 0.777.

**Q.** And the relative viability (LC-2-ad; first compound 0.1 µM)?
**A.** Its relative viability is 0.831.

**Q.** And the relative viability (LC-2-ad; first compound 0.3162 µM)?
**A.** Its relative viability is 0.817.

**Q.** And the relative viability (LC-2-ad; first compound 1 µM)?
**A.** Its relative viability is 0.785.

**Q.** What about the relative viability (NCI-H1944; first compound 0.01 µM) of the same molecule?
**A.** The relative viability was 0.541.

**Q.** What about the relative viability (NCI-H1944; first compound 0.03162 µM) of the same molecule?
**A.** The relative viability was 0.527.

**Q.** And the relative viability (NCI-H1944; first compound 0.1 µM)?
**A.** The relative viability was 0.481.

**Q.** What about the relative viability (NCI-H1944; first compound 0.3162 µM) of the same molecule?
**A.** Its relative viability is 0.528.

**Q.** And the relative viability (NCI-H1944; first compound 1 µM)?
**A.** Its relative viability is 0.438.

**Q.** And the relative viability (PC-3 [JPC-3]; first compound 0.01 µM)?
**A.** The relative viability was 0.65.

**Q.** And the relative viability (PC-3 [JPC-3]; first compound 0.03162 µM)?
**A.** Its relative viability is 0.855.

**Q.** And the relative viability (PC-3 [JPC-3]; first compound 0.1 µM)?
**A.** The relative viability was 0.87.

**Q.** What about the relative viability (PC-3 [JPC-3]; first compound 0.3162 µM) of the same molecule?
**A.** Its relative viability is 0.954.

**Q.** And the relative viability (PC-3 [JPC-3]; first compound 1 µM)?
**A.** The relative viability was 0.834.

**Q.** What about the relative viability (CAL-12T; first compound 0.01 µM) of the same molecule?
**A.** The relative viability was 0.58.

**Q.** What about the relative viability (CAL-12T; first compound 0.03162 µM) of the same molecule?
**A.** The relative viability was 0.541.

**Q.** And the relative viability (CAL-12T; first compound 0.1 µM)?
**A.** Its relative viability is 0.852.

**Q.** And the relative viability (CAL-12T; first compound 0.3162 µM)?
**A.** Its relative viability is 0.676.

**Q.** And the relative viability (CAL-12T; first compound 1 µM)?
**A.** The relative viability was 0.498.

**Q.** What about the relative viability (NCI-H1651; first compound 0.01 µM) of the same molecule?
**A.** Its relative viability is 0.494.

**Q.** What about the relative viability (NCI-H1651; first compound 0.03162 µM) of the same molecule?
**A.** Its relative viability is 0.504.

**Q.** What about the relative viability (NCI-H1651; first compound 0.1 µM) of the same molecule?
**A.** The relative viability was 0.454.

**Q.** What about the relative viability (NCI-H1651; first compound 0.3162 µM) of the same molecule?
**A.** Its relative viability is 0.44.

**Q.** And the relative viability (NCI-H1651; first compound 1 µM)?
**A.** Its relative viability is 0.384.

**Q.** What about the relative viability (H3255; first compound 0.01 µM) of the same molecule?
**A.** The relative viability was 0.901.

**Q.** What about the relative viability (H3255; first compound 0.03162 µM) of the same molecule?
**A.** Its relative viability is 0.933.

**Q.** And the relative viability (H3255; first compound 0.1 µM)?
**A.** Its relative viability is 0.845.

**Q.** And the relative viability (H3255; first compound 0.3162 µM)?
**A.** The relative viability was 0.822.

**Q.** What about the relative viability (H3255; first compound 1 µM) of the same molecule?
**A.** The relative viability was 0.852.

Reference: the supplement of paper PMC10307832
